The structures appear in SMILES notation.

The target of experiment [1] is T1, MERS-CoV PLpro (Human betacoronavirus 2c EMC/2012, UniProt K0BWD0). It counts as binding.
Experiment [2] deals with T1, MERS-CoV PLpro. Nature of the experiment: biochemical.
Experiment [3] has as its target T1, MERS-CoV PLpro. The experiment is described as follows: biochemical. Format: binding. As to conditions: read-out: SA (111.5 μM).

For the compound `COc1ccc2c(c1)c(CC(=O)O)c(C)n2C(=O)c1ccc(Cl)cc1` [Indomethacin], in experiment [1], the “Indomethacin (279.5 μM)” value amounted to 1.44 °C.

As a reminder, the IC50 is the concentration that gives 50% inhibition. In experiment [2], `COc1cc(/C=C/C(=O)O)cc(OC)c1O` [sinapic acid] returned an IC50 of 68.6 µM. In experiment [3], the ΔTm at 111.5 µM is 18.4 °C.

The record behind these values is article PMC10937238 (Saudi Pharmaceutical Journal : SPJ, 2024).
